This note sets out measurements from patent US20060241082A1, “Modulating vesicular monoamine transporter trafficking and function: a novel approach for the treatment of parkinson's disease” (priority 2002, published 2006).

Where “and” joins values, the source holds several entries; their conditions need not be identical. Equal entries are not always repeated. Where two headings read alike, the source gives them in different places.

Series [1] can be described thus: Striatal tissue DA content of treated rats (HPLC). The series is classed as in vivo, rat. As to conditions: rats. The method, then:
On the day of the assay, frozen tissue samples were thawed, sonicated for 3-5 s in tissue buffer (0.05 M sodium phosphate/0.03 M citric acid buffer with 15% methanol (v/v); pH 2.78), and centrifuged for 15 min at 22,000×g. Tissue pellets were retained and protein determined according to the method of Lowry et al. (1951). The supernatant was centrifuged a second time for 15 min at 22,000×g. 20 μl of supernatant were injected onto a high performance liquid chromatograph system coupled to an electrochemical detector (+0.73 V) for separation and quantitation of dopamine levels using the method of Chapin et al. (1986).

Series [2] is described as follows: Vesicular DA content in purified striatal vesicles of treated rats. Type of series: in vivo, rat. The method, then: Purified striatal vesicles were prepared as described above. The resulting vesicular pellet was sonicated for approximately 5 sec in cold tissue buffer (0.05 M sodium phosphate/0.03 M citric acid buffer with 15% methanol (v/v); pH 2.5) at a concentration of 100 mg/ml (original wet weight of tissue), and centrifuged for 15 min at 22,000×g. Tissue pellets were retained and protein was determined according to the method of Lowry et al. (1951). 40 μl of supernatant was injected onto a high performance liquid chromatograph system coupled to an electrochemical detector (+0.73 V) for separation and quantitation of DA levels using the method of Chapin et al. (1986).

In series [3] the target is T1, VMAT-2 (Rattus norvegicus, UniProt Q01827). Type of series: in vivo. The arrangement: purified striatal vesicles prepared from treated rats; from tissue; host or cells: striatum of male Sprague-Dawley rats (synaptic vesicles; P2, P3, S3 fractions). As to conditions: for Km: read-out: Km of vesicular [3H]DA uptake. The method, then: Osmolarity was restored by addition of N-(2-hydroxyethyl)-piperazine-N′-2-ethanesulfonic acid (HEPES) and potassium tartrate 25 mM and 100 mM (final concentrations; pH 7.5 at 4° C.), respectively.
T1 sequence (Q01827 whole entry): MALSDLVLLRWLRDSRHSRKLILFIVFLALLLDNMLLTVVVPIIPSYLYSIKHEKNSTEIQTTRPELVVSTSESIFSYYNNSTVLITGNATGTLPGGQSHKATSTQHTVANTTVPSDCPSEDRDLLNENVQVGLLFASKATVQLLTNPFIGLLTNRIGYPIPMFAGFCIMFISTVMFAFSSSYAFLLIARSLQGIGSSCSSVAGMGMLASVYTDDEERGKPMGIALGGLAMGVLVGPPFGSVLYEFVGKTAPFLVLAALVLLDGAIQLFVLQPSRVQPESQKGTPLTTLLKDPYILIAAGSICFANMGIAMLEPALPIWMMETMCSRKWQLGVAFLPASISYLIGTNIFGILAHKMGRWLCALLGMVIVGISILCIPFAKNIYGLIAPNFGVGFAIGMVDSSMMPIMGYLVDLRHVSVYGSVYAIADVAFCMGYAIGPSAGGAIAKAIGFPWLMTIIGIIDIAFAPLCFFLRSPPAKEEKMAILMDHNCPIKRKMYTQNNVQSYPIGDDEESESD

Series [4] has as its target VMAT-2 (Mus musculus, UniProt Q8BRU6). In words: Vesicular [3H]dopamine uptake in striatal vesicles prepared from treated mice. Type of series: in vivo. The method, then:
(A. E. Fleckenstein, et al., J. Pharmacol Exp Ther. (1997) 282:834-838). Briefly, fresh tissue was homogenized in ice-cold 0.32 M sucrose. The homogenate was centrifuged (800×g for 12 min; 4° C.), and the supernatant (S1) was carefully removed and centrifuged (22,000×g for 15 min; 4° C.) to obtain the synaptosomal-containing pellet (P2). The resulting P2 were resuspended and homogenized in ice-cold distilled deionized water. Osmolarity was restore by addition 25 mM HEPES and 100 mM potassium tartrate (final concentration; pH 7.5 at 4° C. respectively). […] The resultant S3 removed and MgSO4 added (final concentration of [1 mM] pH 7.5 at 4° C.) and centrifuged at 100,000×g for 45 min. The final P4 were resuspended at 50 mg/ml (original tissue wet weight).

The target in series [5] is T1, VMAT-2. Nature of the series: [3H]DHTBZ binding in purified striatal vesicles prepared from treated rats.
Protocol: Synaptic vesicles were obtained from synaptosomes prepared from rat striatum as described above. Synaptosomes were resuspended and homogenized in cold distilled deionized water. Osmolarity was restored by addition of HEPES and potassium tartrate 245 and 100 mM (final concentrations; pH 7.5), respectively. Samples were centrifuged for 20 min at 20,000×g (4° C.) to remove lysed synaptosomal membranes. MgSO4 (1 mM, final concentration) was added to the supernatant, which was then centrifuged for 45 min at 100,000×g (4° C.). The resulting vesicular pellet was resuspended in wash buffer at a concentration of 50 mg/ml (original tissue weight). […] Binding of [^3H]DHTBZ was performed as described by Teng et al. (1998). Briefly, 200 μl of the synaptic vesicle preparation (˜6 μg of protein) was incubated in wash buffer in the presence of [^3H]DHTBZ (2 nM final concentration) for 10 min at 25° C. The reaction was terminated by addition of 1 ml of cold wash buffer and rapid filtration through Whatman GF/F filters soaked in 0.5% polyethylenimine. Filters were washed three times with ice-cold wash buffer. Nonspecific binding was determined by coincubation with 20 μM tetrabenazine. All protein concentrations were determined by a BioRad protein assay (Bio-Rad, Richmond, Calif.).
Binding of [^3H]DHTBZ was performed as described by Teng et al. (1998). Briefly, 200 μl (˜6 μg protein) of the synaptic vesicle preparation was incubated in wash buffer in the presence of [^3H]DHTBZ (2 nM final concentration except in kinetic analyses wherein 0.25-500 nM DHTBZ was employed) for 10 m in at 25° C. The reaction was terminated by addition of 1 ml cold wash buffer and rapid filtration through Whatman GF/F filters soaked in 0.5% polyethylenimine. Filters were washed three times with ice-cold wash buffer. Radioactivity trapped in filters was counted using a liquid scintillation counter. Nonspecific binding was determined by coincubation with 20 μM TBZ. All protein concentrations were determined by a Bio-Rad protein assay (Bio-Rad Inc.).
Binding of[^3H]DHTBZ was performed as described by Teng et al. (1998). Briefly, 200 μl (˜5 μg protein) of the synaptic vesicle preparation was incubated in wash buffer in the presence of [^3H]DHTBZ (2 nM final concentration except in kinetic analyses wherein 0.25-500 nM DHTBZ was employed) for 10 m in at 25° C. The reaction was terminated by addition of 1 ml cold wash buffer and rapid filtration through Whatman GF/F filters soaked in 0.5% polyethylenimine. Filters were washed three times with ice-cold wash buffer. Radioactivity trapped in filters was counted using a liquid scintillation counter. Nonspecific binding was determined by coincubation with 20 μM TBZ. All protein concentrations were determined by a Bio-Rad protein assay (Bio-Rad Inc.).
Where [6] appears, read: MPD-treated rats, 40 mg/kg s.c., 1 h.
[7] abbreviates: rats, MPD 5 mg/kg s.c. injections.
Setting [8] is: rats, METH 4 x 7.5 mg/kg s.c., 2-h intervals.
Setting [9] is: rats, single 15 mg/kg METH injection s.c., 1 h.

Chain of VMAT-2 (Mus musculus, UniProt Q8BRU6) (Q8BRU6 whole entry): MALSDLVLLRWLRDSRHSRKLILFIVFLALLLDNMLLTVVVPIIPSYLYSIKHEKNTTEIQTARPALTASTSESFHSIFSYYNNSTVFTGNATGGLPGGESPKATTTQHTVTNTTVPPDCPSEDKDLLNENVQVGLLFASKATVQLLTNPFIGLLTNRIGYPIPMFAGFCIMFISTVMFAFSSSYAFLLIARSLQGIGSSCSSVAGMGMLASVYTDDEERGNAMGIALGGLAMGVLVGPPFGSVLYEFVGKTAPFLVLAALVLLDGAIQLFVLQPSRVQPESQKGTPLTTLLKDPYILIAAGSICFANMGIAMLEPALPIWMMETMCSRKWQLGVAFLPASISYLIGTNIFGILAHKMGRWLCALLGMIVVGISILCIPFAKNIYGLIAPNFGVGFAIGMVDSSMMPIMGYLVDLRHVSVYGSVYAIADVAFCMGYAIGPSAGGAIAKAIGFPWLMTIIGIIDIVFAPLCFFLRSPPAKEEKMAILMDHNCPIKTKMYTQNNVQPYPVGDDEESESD

Take `COC(=O)C(c1ccccc1)C1CCCCN1` (stereo not shown) [MPD, methylphenidate]: the “total tissue DA concentrations” value in series [1] (3 injections of MPD 5 mg/kg s.c., 1 h after the last MPD injection) was “without altering”. The “total DA levels 7 d after MPD per se” value in series [1] (MPD 5 mg/kg s.c.) was “did not alter”. In addition, in series [1] (MPD 5 mg/kg s.c. 1 h after the last METH (4 x 7.5 mg/kg s.c.)), the “effect of post-treatment with a single MPD injection on the 7-d striatal DA depletions caused by METH” value is recorded as “partially reversed”. In addition, the “effect of two or three MPD injections on the persistent METH-induced striatal DA depletions” value in series [1] (MPD 5 mg/kg s.c. at 1 and 3 h, or 1, 3 and 5 h after the last METH) was “completely prevented”. For the same compound, the “increase in vesicular DA levels” value in series [2] (rats, 3 injections of MPD 5 mg/kg s.c. over a 5 h period, 1 h after the last MPD injection) is on record as ~140%. Also, the “effect of MPD post-treatment on the METH-induced decrease in vesicular DA content” value in series [2] (rats, 3 injections of MPD after multiple METH regimen, 6 h after METH treatment) is “reversed”. On VMAT-2 [3] (setting [6]), the “transporter Vmax of vesicular [3H]DA uptake” value was 2350±250 fmol/μg protein/3 min and the Km is 0.23 ± 0.01 µM. Besides, the “effect of MPD post-treatment on the METH-induced decrease in vesicular DA uptake” value on VMAT-2 [3] (rat, in vivo) is recorded as “reversed”. In addition, the “vesicular DA uptake after MPD treatment per se” value on VMAT-2 [3] (setting [7]) is listed as “increased”. Further, at VMAT-2 [3] (rats, MPD 5, 10, 20, or 40 mg/kg s.c., 1 h), the “vesicular [3H]DA uptake after a single MPD administration” value is reported as “increases”. Also, the “reversal of the increases in vesicular [3H]DA uptake and [3H]DHTBZ binding” value on VMAT-2 [3] (rats, after a 40 mg/kg MPD administration) is reported as ≤ 12 h. Besides, at VMAT-2 [3] (rats, single MPD s.c.), the “onset of the increases in vesicular [3H]DA uptake and [3H]DHTBZ binding” value is listed as ≤ 30 min. On VMAT-2 [4] (methylphenidate 10 mg/kg s.c. or cocaine 30 mg/kg i.p., vesicles prepared 1 h after treatment), the “vesicular dopamine uptake after a single injection” value is “increased”. The “transporter Bmax for [3H]DHTBZ” value on VMAT-2 [5] (MPD-treated rats) came out at 28.87 fmol/μg protein. The “effect of MPD post-treatment on the METH-induced decrease in DHTBZ binding” value at VMAT-2 [5] (rats, 1, 2 or 3 injections of MPD 5 mg/kg s.c. during the initial 6-h period after METH) is recorded as “reversed”. Moreover, the “DHTBZ binding after MPD treatment per se” value on VMAT-2 [5] (setting [7]) is on record as “increased”. Also, at VMAT-2 [5] (rats, MPD 5-40 mg/kg s.c., 1 h), the “binding of the VMAT-2 ligand [3H]DHTBZ after a single MPD administration” value is recorded as “increase”.
For the compound `CN[C@@H](C)Cc1ccccc1` (racemic) [METH, methamphetamine], the “striatal DA levels 7 d after treatment” value in series [1] (METH 4 x 7.5 mg/kg s.c., 2-h intervals, vs saline/saline) is “decreased”. Also, the “decrease in whole tissue DA content” value in series [1] (multiple METH, 6 h after drug treatment) stood at 60%. The “vesicular DA levels” value in series [2] (METH-treated rats, 4 x 7.5 mg/kg s.c., 1 h after treatment, n=6) is recorded as 2.30±2.5 pg/μg protein. Moreover, the “decrease in vesicular DA levels” value in series [2] (rats, METH 4 x 7.5 mg/kg s.c., 2-h intervals, 1 h after treatment) was 49%. In addition, the “decrease in vesicular DA content” value in series [2] (rats, multiple METH, 6 h after drug treatment) came out at 60%. Further, the “persistence of the decreases in vesicular DA uptake and DHTBZ binding after treatment” value at VMAT-2 [3] (rats, METH 4 x 7.5 mg/kg s.c.) was “at least 6 h”. On VMAT-2 [3] (setting [8]), the “vesicular DA uptake 1 h after the last METH injection” value is “rapidly decreased”. Besides, on VMAT-2 [3] (setting [9]), the “Vmax of vesicular [3H]DA uptake” value came out at 607 fmol/μg protein/min and the Michaelis-Menten constant (Km) amounted to 0.187 µM. Moreover, on VMAT-2 [3] (rats, single METH 15 mg/kg s.c., 1 h), the “decrease in vesicular [3H]DA uptake” value was 25% and 23%. Further, the “deficit in vesicular [3H]DA uptake 24 h after treatment” value at VMAT-2 [3] (rats, single METH 15 mg/kg s.c., 24 h) is “recovered”. Besides, the “vesicular [3H]dopamine uptake” value at VMAT-2 [4] (methamphetamine 4 x 10 mg/kg s.c., 2-h intervals, 1 and 24 h after treatment) was “rapidly decreased”. Also, the “DHTBZ binding 1 h after the last METH injection” value on VMAT-2 [5] (setting [8]) is recorded as “rapidly decreased”.
